Test results from patent US10703740B2, “Substituted benzimidazoles, their preparation and their use as pharmaceuticals” (NEOMED Institute, priority 2015, dated 2020).

Legend:
BRD4(BD1) = BRD4(BD1) (Homo sapiens (Human), UniProt O60885); assay: In vitro bromodomain inhibition assay (AlphaLISA); format: binding; conditions: His-tagged BRD4 BD1 200 nM, biotinylated H4-tetraacetyl peptide 200 nM
Protocol: To measure activity of bromodomain inhibitors, a His-epitope tagged BRD4 BD149-170 is purchased from BPS Bioscience. BRD4 binding and inhibition is assessed by monitoring the engagement of biotinylated H4-tetraacetyl peptide (H4K5/8/12/16; AnaSpec #64989-025) with the target using the AlphaLISA technology (Perkin-Elmer). Specifically, in a 384 well OptiPlate, BRD4(BD1) (200 nM final) is pre-incubated with either DMSO (final 1.0% DMSO) or a compound dilution series in DMSO. All reagents are diluted in assay buffer containing 50 mM HEPES (pH 7.4), 100 mM NaCl, 0.1% (w/v) BSA, and 0.05% (w/v) CHAPS. After a 30 minute incubation at rt, H4 peptide is added (200 nM final) and the reaction is incubated an additional 30 minutes at rt. Alpha streptavidin donor beads and AlphaLISA nickel chelate acceptor beads are then added to a final concentration of 10 μg/mL each. After one hour, equilibration plates are read on an Envision instrument and IC50s calculated using a four parameter non-linear curve fit (results are shown in Table 1).

[1] = tested on: human C-Myc transcription in MV-4-11 cells; assay: Transcription of human C-Myc in human leukemic MV-4-11 cells (QuantiGene 2.0); format: cell-based; conditions: Homo sapiens, MV4-11, 4 h, inhibition of C-Myc mRNA, 4 hours treatment, read-out: IC50 MV-4-11 Cell
Method in brief: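 MV-4-11 cells (8,000/well) in Iscove's medium with 10% FBS were treated for 4 hours with 1:3 serial compound dilutions at 0.1% final DMSO. C-Myc mRNA was quantified in lysates by QuantiGene 2.0 branched-DNA assay with a human C-Myc-specific probe, with luminescence read-out.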

Structure (SMILES) | IC50 (BRD4(BD1)) [nM] | IC50 [1] [nM]
Cn1cc(-c2ccc3nc(C4CC4)n(CCOC(F)(F)F)c3c2)cc(C(F)(F)F)c1=O [Compound 13, 5-[2-cyclopropyl-3-[2-(trifluoromethoxy)ethyl]benzimidazol-5-yl]-1-methyl-3-(trifluoromethyl)pyridin-2-one] | 810 | 850
COC[C@@H](C)n1c(C2CC2)nc2ccc(-c3cc(C)c(=O)n(C)c3)cc21 [Compound 15, 5-[2-cyclopropyl-3-[(1R)-2-methoxy-1-methylethyl]benzimidazol-5-yl]-1,3-dimethyl pyridin-2-one] | 100 | 240
Cc1cc(-c2ccc3nc(C)n(CCOC(F)(F)F)c3c2)cn(C)c1=O [Compound 5, 1,3-dimethyl-5-[2-methyl-3-[2-(trifluoromethoxy)ethyl]benzimidazol-5-yl]pyridin-2-one] | 190 | 230
COCCn1c(C2CC2)nc2ccc(-c3cc(C)c(=O)n(C)c3)cc21 [Compound 7, 5-[2-cyclopropyl-3-(2-methoxyethyl)benzimidazol-5-yl]-1,3-dimethyl-pyridin-2-one] | 280 | 520
CC(=O)N1CCC(c2nc3ccc(-c4cc(C)c(=O)n(C)c4)cc3n2CCOC(F)(F)F)CC1 [Compound 4, 5-[2-(1-acetyl-4-piperidyl)-3-[2-(trifluoromethoxy)ethyl]benzimidazol-5-yl]-1,3-dimethylpyridin-2-one] | 130 | 89
Cc1cc(-c2ccc3ncn(CCOC(F)(F)F)c3c2)cn(C)c1=O [Compound 3, 1,3-dimethyl-5-[3-[2-(trifluoromethoxy)ethyl]benzimidazol-5-yl]pyridin-2-one] | 310 | 95
COCCn1c(C2CCOCC2)nc2ccc(-c3cc(C)c(=O)n(C)c3)cc21 [Compound 9, 5-[3-(2-methoxyethyl)-2-tetrahydropyran-4-yl-benzimidazol-5-yl]-1,3-dimethyl pyridin-2-one] | 220 | 250
COC[C@@H](C)n1c(C)nc2ccc(-c3cc(C)c(=O)n(C)c3)cc21 [Compound 11, 5-[3-[(1R)-2-methoxy-1-methyl-ethyl]-2-methyl-benzimidazol-5-yl]-1,3-dimethyl pyridin-2-one] | 98 | 170
COCCn1c(C)nc2ccc(-c3cc(C)c(=O)n(C)c3)cc21 [Compound 8, 5-[3-(2-methoxyethyl)-2-methyl-benzimidazol-5-yl]-1,3-dimethylpyridin-2-one] | 210 | 790
Cc1cc(-c2ccc3nc(C4CCOCC4)n(CCOC(F)(F)F)c3c2)cn(C)c1=O [Compound 1, 1,3-dimethyl-5-[2-tetrahydropyran-4-yl-3-[2-(trifluoromethoxy)ethyl]benzimidazol-5-yl]pyridin-2-one] | 140 | 76
COC[C@@H](C)n1cnc2ccc(-c3cc(C)c(=O)n(C)c3)cc21 [Compound 12, 5-[3-[(1R)-2-methoxy-1-methyl-ethyl]benzimidazol-5-yl]-1,3-dimethyl-pyridin-2-one] | 330 | 550
Cc1cc(-c2ccc3nc(C4CCC4)n(CCOC(F)(F)F)c3c2)cn(C)c1=O [Compound 6, 5-[2-cyclobutyl-3-[2-(trifluoromethoxy)ethyl]benzimidazol-5-yl]-1,3-dimethyl-pyridin-2-one] | 91 | 56
COC[C@@H](C)n1c(C2CCOCC2)nc2ccc(-c3cc(C)c(=O)n(C)c3)cc21 [Compound 10, 5-[3-[(1R)-2-methoxy-1-methyl-ethyl]-2-tetrahydropyran-4-yl-benzimidazol-5-yl]-1,3-dimethyl-pyridin-2-one] | 99 | 62
